Common to all, as to assay: growth of human tumour cells (NCI), 48 h
Assay [1] deals with RPMI-8226 leukemia.
The test system of assay [2] is SK-MEL-5 melanoma.
The subject of assay [3] is MDA-MB-435.
Assay [4] deals with HS 578T breast.
Assay [5] deals with HOP-62 NSCLC.
The test system of assay [6] is SNB-19 CNS.
Assay [7] deals with HCT-15 colon.
In assay [8] the test system is SW-620 colon.
Assay [9] deals with IGROV1 ovarian.
In assay [10] the test system is OVCAR-5 ovarian.

Where “and” joins values, the source holds several entries; their conditions need not be identical. Identical values can stand only once.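 Results reflect a 48-hour exposure of cells in 96-well plates to compound at five concentrations. GI50 = concentration required for 50% inhibition of growth. TGI is the concentration that stops growth completely.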 A value given as a limit tells only on which side of the number the result lay.

In the case of `CCCCCCCCCCCCNC(C)=O`, the TGI is 30.7 µM in assay [1]; 30.4 µM in assay [2]; 35.4 µM in [3]; 31.1 µM in [4]; 28.9 µM in [5]; 31.2 µM in assay [6]. Moreover, the TGI turned out to be 33.1 µM in assay [7] and 30.9 µM in assay [8].
Turning to `Cc1nc(-c2cccc(Nc3nc(-c4ccc(Cl)cc4)cs3)c2)cs1`, the GI50 in assay [1] was 21.3 µM; in assay [2], 10.5 µM; in [3] it was 10.4 µM; in [4] it was 14.1 µM; in [5], 12.3 µM; in [6] it was 12.8 µM. The figures for the GI50 in [7], in assay [9] and in [8] were 7.83 µM, 15.9 µM and 11.9 µM, respectively. Also, the TGI in assay [1] was over 50 µM; in assay [2] it was 19.7 µM; in assay [3], 27.4 µM; in assay [4] it was 34.9 µM; in assay [5], 24.5 µM; in assay [6] it was 28.9 µM. The TGI is 18.6 µM in assay [7], 32.7 µM in assay [9] and 27 µM in [8].
As for `CCCCC[C@H](O)/C=C/[C@@H]1[C@@H](C/C=C\CCCC(=O)O)[C@@H](O)C[C@H]1O`, the GI50 in assay [1], in [2], in assay [10], in assay [3], in assay [4] and in assay [6] was over 100 µM each time. The GI50 in assay [7], in assay [9] and in assay [8] was over 100 µM in each case. Further, the TGI in [1], in assay [2], in assay [10], in assay [3], in [4] and in [6] was over 100 µM each time. For the same compound, the TGI in [7], in [9] and in assay [8] was over 100 µM in each case.
Take `COc1cc(C2c3[nH]c4ccccc4c3C[C@H]3COC(=O)N23)cc(OC)c1OC` (stereo not given in full): the GI50 in assay [1] is under 0.01 µM; in assay [2], under 0.01 µM; in assay [5], under 0.01 µM; in assay [7], under 0.01 µM; in assay [9], 0.0655 µM and < 0.01 µM; in assay [8] it was under 0.01 µM. Besides, the TGI is under 0.01 µM in [1]; 0.0494 µM in assay [3]; 0.0814 µM in [4]; 3.16 µM in assay [6]; 6.72 µM and 1.39 µM in assay [7]; over 100 µM in assay [9]. In addition, the TGI in assay [8] is over 100 µM.
As for `O=C1c2ccccc2-c2c1c1ccccc1c(=O)n2CCCCNCCCn1c2c(c3ccccc3c1=O)C(=O)c1ccccc1-2`, the GI50 in assay [1] was 0.0193 µM; in [2], 0.529 µM; in assay [10], 0.676 µM; in [3], 0.851 µM; in assay [4], 0.822 µM; in [5] it was 0.13 µM. Besides, the GI50 is 0.51 µM in assay [6], 0.143 µM in assay [7] and 0.022 µM in assay [8]. Moreover, the TGI in [1] is 0.755 µM; in [2], 1.49 µM; in assay [10] it was 1.54 µM; in assay [3], 4.32 µM; in assay [4] it was 16 µM; in assay [5] it was 1.42 µM. Moreover, the results for the TGI in [6], in [7] and in assay [8] were 10.4 µM, 0.624 µM and 0.528 µM, respectively.
Consider `COc1ccccc1NC(=O)c1sc2nc3c(cc2c1N)C(=O)CCC3`, for which the GI50 in [1] was over 100 µM; in [2], 1.62 µM; in [3], 0.295 µM; in [4], 6.77 µM; in assay [5], 2.37 µM; in assay [6], 12.8 µM. Moreover, the GI50 in assay [9] is 8.15 µM. For the same compound, the TGI is over 100 µM in assay [1]; over 100 µM in assay [2]; 1.58 µM in assay [3]; over 100 µM in assay [4]; 7.17 µM in [5]; over 100 µM in [6]. This compound had a TGI in [9] of over 100 µM.
Regarding `O=C1C(Cl)=C(Nc2cccc(Cl)c2)C(=O)N1Cc1ccccc1`, the GI50 in [1] is 1.37 µM; in [2], 6.83 µM; in assay [10], 9.49 µM; in [3] it was 2.26 µM; in assay [4] it was 6.34 µM; in [5], 11.2 µM. In addition, the GI50 in assay [6] was 14.5 µM; in assay [7] it was 10.8 µM; in [9], 8.15 µM. Also, the TGI in assay [1] turned out to be 7.9 µM; in assay [2], 20.3 µM; in assay [10], 33.1 µM; in [3] it was 7.17 µM; in assay [4] it was 27.5 µM; in assay [5] it was 24.4 µM. Also, the TGI is 55.1 µM in assay [6], 27.4 µM in assay [7] and over 100 µM in assay [9].
Consider `FC(F)(F)c1nc(N2CCCC2)ncc1-c1nnnn1-c1ccc(Cl)cc1`, for which the GI50 was 1.41 µM in assay [1]; 12 µM in assay [2]; over 100 µM in assay [10]; 15.2 µM in [3]; 21.2 µM in assay [4]; 30.9 µM in [6]. The GI50 in assay [7] is 28.5 µM; in assay [9], 25.5 µM; in assay [8], 30.4 µM. Also, the TGI in assay [1] is 12.8 µM; in [2] it was 28.3 µM; in assay [10], over 100 µM; in assay [3] it was 40.8 µM; in [4] it was over 100 µM; in [6], over 100 µM. Besides, the TGI in [7], in [9] and in assay [8] was over 100 µM in each case.

The record behind these values is PubChem BioAssay (NCI).
